Measured values taken from PubChem BioAssay AID588647 (Sanford-Burnham Center for Chemical Genomics, 2011).
Where “and” joins values, the source holds several entries; their conditions need not be identical. Equal values may be shown once. Calls of active or inactive are those of the source. No rule for the calls is given here.

Molecular target: intestinal alkaline phosphatase (Mus musculus)
Assay: mouse IAP inhibition by analogs – biochemical, luminescence, set 2, SAR follow-up (AID 588647)
Conditions: purified mouse IAP, luminescent substrate read-out

Row | SMILES | IC50
1 | O=C(CCNS(=O)(=O)c1ccc2[nH]c(=O)oc2c1)Nc1ccc2c(c1)OCO2 | 12 µM
2 | N#Cc1cccc(NC(=O)CNS(=O)(=O)c2ccc3[nH]c(=O)oc3c2)c1 | 1.4 µM and > 100 µM (inactive)
3 | Cc1ccc(C)c(CNC(=O)C2CCCN(S(=O)(=O)c3ccc4[nH]c(=O)oc4c3)C2)c1 (stereo not given) | > 100 µM (inactive)
4 | COc1cccc(/C=N/NC(=O)c2cc(O)c(O)c(O)c2)c1O | 4.01 µM
5 | COc1ccc(CNC(=O)CNS(=O)(=O)c2ccc3[nH]c(=O)oc3c2)cc1 | 0.89 µM and 2.1 µM and 2.5 µM
6 | O=C(N/N=C/c1ccccc1F)c1ccc(O)cc1O | > 100 µM (inactive)
7 | COc1cccc(NC(=O)CCNS(=O)(=O)c2ccc3c(c2)oc(=O)n3C)c1 | > 100 µM (inactive)
8 | COc1ccc(CNC(=O)CCNS(=O)(=O)c2ccc3[nH]c(=O)oc3c2)cc1 | 3 µM and 2.3 µM
9 | COc1cccc(CNC(=O)CCNS(=O)(=O)c2ccc3[nH]c(=O)oc3c2)c1 | 0.82 µM and 34 µM and > 100 µM (inactive)
10 | O=C(CCNS(=O)(=O)c1ccc2[nH]c(=O)oc2c1)NCCc1ccc(O)cc1 | > 100 µM (inactive)
11 | COc1ccc(CCNC(=O)CCCNS(=O)(=O)c2ccc3[nH]c(=O)oc3c2)cc1 | 7.4 µM
12 | O=C(CCNS(=O)(=O)c1ccc2[nH]c(=O)oc2c1)NCc1ccccc1 | 81 µM
13 | COc1ccc(NC(=O)CCCNS(=O)(=O)c2ccc3[nH]c(=O)oc3c2)cc1OC | 1.5 µM
14 | O=C(N/N=C/c1cc(Br)ccc1F)c1ccc(O)cc1 | > 100 µM (inactive)
15 | O=c1[nH]c2ccc(S(=O)(=O)Nc3ccc4c(c3)OCO4)cc2o1 | > 100 µM (inactive)
16 | N#Cc1cccc(NS(=O)(=O)c2ccc3[nH]c(=O)oc3c2)c1 | > 100 µM (inactive)
17 | O=C(CCNS(=O)(=O)c1ccc2c(c1)CCC2)NCCc1ccc2c(c1)OCO2 | > 100 µM (inactive)
18 | O=C(CCNS(=O)(=O)c1ccc2[nH]c(=O)oc2c1)NCc1ccc(Cl)cc1 | 88 µM
19 | COc1ccc(NC(=O)CCNS(=O)(=O)c2ccc3[nH]c(=O)oc3c2)cc1OC | 0.53 µM and 0.54 µM
20 | O=C(CCS(=O)(=O)Nc1ccc2[nH]c(=O)oc2c1)NCc1cccc(F)c1 | 66 µM
21 | COc1ccc(C(=O)N/N=C/c2c(F)cccc2Cl)cc1OC | > 100 µM (inactive)
22 | Cc1ccc(C)c(NC(=O)CCNS(=O)(=O)c2ccc3ccccc3c2)c1 | 78 µM
23 | COc1ccc(OC)c(NC(=O)CCNS(=O)(=O)c2ccc3c(c2)oc(=O)n3C)c1 | > 100 µM (inactive)
24 | C/C(=N\NC(=O)c1cc(O)c(O)c(O)c1)c1ccc(O)cc1O | 0.777 µM
25 | CC(C)c1ccc(/C=N/NC(=O)c2cc(O)c(O)c(O)c2)cc1 | 57.5 µM
26 | Cc1ccc(C)c(NC(=O)CNS(=O)(=O)c2ccc3[nH]c(=O)oc3c2)c1 | 0.93 µM and 0.54 µM
27 | CN(C)c1ccc(CNC(=O)C2CCCN(S(=O)(=O)c3ccc4[nH]c(=O)oc4c3)C2)cc1 (stereo not given) | > 100 µM (inactive)
28 | COc1ccc(NC(=O)CCNS(=O)(=O)c2ccc3c(c2)CCC3)cc1OC | > 100 µM (inactive)
29 | COc1ccc(CNC(=O)CCCNS(=O)(=O)c2ccc3[nH]c(=O)oc3c2)cc1OC | 78 µM

Now from value to molecule:

Row | IC50 | SMILES
30 | > 100 µM (inactive) | O=C(N/N=C/c1ccccc1F)c1ccc(O)cc1
31 | 1.5 µM | COc1ccc(CCNC(=O)CCCNS(=O)(=O)c2ccc3[nH]c(=O)oc3c2)cc1OC
32 | 89 µM | COc1ccc(CNS(=O)(=O)c2ccc3[nH]c(=O)oc3c2)c(OC)c1
33 | > 100 µM (inactive) | O=C(CCNS(=O)(=O)c1ccc2ccccc2c1)NCCc1ccc2c(c1)OCO2
34 | > 100 µM (inactive) | COc1ccc(C(=O)N/N=C/c2ccccc2F)cc1
35 | 86 µM | O=C(CCS(=O)(=O)Nc1ccc2[nH]c(=O)oc2c1)NCc1ccccc1Cl
36 | 7.49 µM | O=C(N/N=C/c1ccccc1Cl)c1cc(O)c(O)c(O)c1
37 | > 100 µM (inactive) | CCc1ccc(NC(=O)C2CCCN(S(=O)(=O)c3ccc4c(c3)oc(=O)n4C)C2)cc1 (stereo not given)
38 | > 100 µM (inactive) | O=c1[nH]c2ccc(S(=O)(=O)NCCc3ccc4c(c3)OCO4)cc2o1
39 | 2.8 µM and 13 µM | O=C(CCCNS(=O)(=O)c1ccc2[nH]c(=O)oc2c1)NCc1cccc(F)c1
40 | 11.1 µM | O=C(N/N=C/c1c(Cl)cccc1Cl)c1cc(O)c(O)c(O)c1
41 | 7.7 µM | O=C(CCNS(=O)(=O)c1ccc2[nH]c(=O)oc2c1)NCc1ccc(O)c(O)c1
42 | 89 µM | Cc1ccc(CNC(=O)CCNS(=O)(=O)c2ccc3[nH]c(=O)oc3c2)cc1
43 | > 100 µM (inactive) | O=C(NN=Cc1ccccc1F)c1ccc(O)cc1
44 | > 100 µM (inactive) | O=C(N/N=C/c1ccc(F)cc1F)c1ccc(O)cc1
45 | 9.66 µM | O=C(N/N=C/c1ccc(Cl)c(Cl)c1)c1cc(O)c(O)c(O)c1
46 | > 100 µM (inactive) | Cc1ccc(CNC(=O)C2CCCN(S(=O)(=O)c3ccc4[nH]c(=O)oc4c3)C2)cc1 (stereo not given)
47 | > 100 µM (inactive) | CCc1ccc(NC(=O)CCNS(=O)(=O)c2ccc3c(c2)oc(=O)n3C)cc1
48 | > 100 µM (inactive) | Cc1ccc(C)c(NC(=O)C2CCCN(S(=O)(=O)c3ccc4c(c3)oc(=O)n4C)C2)c1 (stereo not given)
49 | 45 µM | O=C(CCCNS(=O)(=O)c1ccc2[nH]c(=O)oc2c1)NCc1ccc2c(c1)OCO2
50 | 8.02 µM | O=C(N/N=C/c1c(F)cccc1Cl)c1cc(O)c(O)c(O)c1

Row | IC50 | SMILES
51 | > 100 µM (inactive) | Cc1ccc(C)c(NC(=O)CCNS(=O)(=O)c2ccc3c(c2)CCC3)c1
52 | 40 µM | COc1cccc(CNS(=O)(=O)c2ccc3[nH]c(=O)oc3c2)c1
53 | 67 µM | O=C(CCS(=O)(=O)Nc1ccc2[nH]c(=O)oc2c1)NCc1cccc(Cl)c1
54 | > 100 µM (inactive) | CC(C)c1ccc(NC(=O)CCNS(=O)(=O)c2ccc3c(c2)oc(=O)n3C)cc1
55 | > 100 µM (inactive) | O=C(N/N=C/c1ccc(Br)cc1F)c1cc(O)ccc1O
56 | > 100 µM (inactive) | COc1ccc(NC(=O)CCNS(=O)(=O)c2ccc3ccccc3c2)cc1OC
57 | 99 µM | Cc1ccc(NC(=O)CCNS(=O)(=O)c2ccc3c(c2)oc(=O)n3C)cc1
58 | 8.37 µM | O=C(N/N=C/c1ccc(F)c(Br)c1)c1cc(O)c(O)c(O)c1
59 | 94 µM | Cc1cc(NC(=O)CCNS(=O)(=O)c2ccc3[nH]c(=O)oc3c2)ccc1Br
60 | 3.87 µM | COc1cc(/C=N/NC(=O)c2cc(O)c(O)c(O)c2)ccc1O
61 | > 100 µM (inactive) | COc1ccc(CNC(=O)CNS(=O)(=O)c2ccc3[nH]c(=O)oc3c2)c(OC)c1
62 | 2 µM and 5.4 µM | COc1ccccc1CNC(=O)CCCNS(=O)(=O)c1ccc2[nH]c(=O)oc2c1
63 | > 100 µM (inactive) | Cc1ccccc1CNC(=O)C1CCCN(S(=O)(=O)c2ccc3[nH]c(=O)oc3c2)C1 (stereo not given)
64 | > 100 µM (inactive) | COc1ccc(CNC(=O)CCNS(=O)(=O)c2ccc3ccccc3c2)c(OC)c1
65 | > 100 µM (inactive) | CC(C)c1ccc(NC(=O)C2CCCN(S(=O)(=O)c3ccc4c(c3)oc(=O)n4C)C2)cc1 (stereo not given)
66 | 2 µM | N#Cc1cccc(CNC(=O)CCNS(=O)(=O)c2ccc3[nH]c(=O)oc3c2)c1
67 | > 100 µM (inactive) | Cc1ccc(NC(=O)CCNS(=O)(=O)c2ccc3c(c2)oc(=O)n3C)c(C)c1
68 | > 100 µM (inactive) | O=C(CCNS(=O)(=O)c1ccc2[nH]c(=O)oc2c1)NCc1ccc(F)cc1
69 | > 100 µM (inactive) | COc1ccccc1CNC(=O)CCNS(=O)(=O)c1ccc2[nH]c(=O)oc2c1
70 | > 100 µM (inactive) | O=C(CCNS(=O)(=O)c1ccc2[nH]c(=O)oc2c1)NCc1cccc(F)c1
